# The COVID Moonshot data (paper PMC7615835)
# Several values for one entry are separate records, joined by “and”; a condition that tells them apart may be missing. Equal values may be shown once.
# Target: SARS-CoV-2 Main Protease (SARS-CoV-2) (UniProt P0DTD1)
row,Compound,IC50
1,O=C(Cc1cc(Cl)cc(Nc2cc(Cl)cnc2Br)c1)Nc1cncc2ccccc12,1.99 µM
2,O=C1CCN(S(=O)(=O)c2cccs2)CC1,> 99.5 µM
3,CCN(CC)CCOc1ccc2cncc(N3CCC4(CN(S(=O)(=O)CC5(C#N)CC5)Cc5ccc(Cl)cc54)C3=O)c2c1 (stereo unspecified),0.183 µM
4,C=CC(=O)NCC(=O)N(CCN1CCOCC1)Cc1sccc1Br,> 99.5 µM
5,CC(=O)C(=O)N1CCN(Cc2cccc(Cl)c2)[C@@H](CC(C)C)C1 (stereo in doubt),> 99.5 µM
6,COc1ccc(Nc2cc(Cl)cc(CC(=O)Nc3cncc4ccccc34)c2)cc1C(F)(F)F,1.89 µM
7,COCCNC(=O)[C@@H](c1ccccc1)N1Cc2ccccc2C1=O (stereo in doubt),> 99.5 µM
8,O=C(NCCOc1ccccc1)c1cc(=O)[nH]c2ccccc12,> 99.5 µM
9,CC(C)(C)c1ccc(-c2nnc(Sc3cnc([N+](=O)[O-])s3)o2)cc1,7.29 µM and 2.38 µM
10,O=C(Cc1cc(Cl)cc(Nc2ccc(I)cc2F)c1)Nc1cncc2ccccc12,2.24 µM
11,O=C(Cc1cc(Cl)cc(Nc2ccc(-c3ccccc3)cc2)c1)Nc1cncc2ccccc12,2.06 µM
12,Cc1nc2sccn2c1CN(C)C(=O)c1cnc2sccn2c1=O,> 99.5 µM
13,O=C(Cc1cccc(Cl)c1)Nc1noc2ncccc12,> 99.5 µM
14,O=C(Nc1ccncc1)[C@@H](c1ccccc1)N1Cc2ccccc2C1=O (stereo in doubt),> 99.5 µM
15,CN(C)C(=O)CNC(=O)C(c1cccnc1)N(C(=O)c1cocn1)c1ccc(C(C)(C)C)cc1 (stereo unspecified),29.2 µM
16,COCCc1ccc(Cl)cc1CN1CCN(C(=O)CCl)CC1,2.2 µM
17,O=C(Nc1cncc2ccccc12)C1CCOc2c(OCCC(F)(F)F)cc(Cl)cc21 (stereo unspecified),3.14 µM
18,Cc1cc(Br)cc(Nc2cc(Cl)cc(CC(=O)Nc3cncc4ccccc34)c2)c1,1.96 µM
19,COCCn1nc(C(=O)N(c2ccc(C(C)(C)C)cc2)C(C(=O)NCCc2cccc(F)c2)c2cccnc2)ccc1=O (stereo unspecified),> 99.5 µM
20,COC(C)(C)/C=C/C[C@@H](C)[C@H]1CC[C@@]2(C)[C@@H]3[C@@H](O[C@@H]4O[C@H](CO)[C@@H](O)[C@H](O)[C@H]4O)C=C4[C@@H](CC[C@H](O)C4(C)C)[C@]3(C=O)CC[C@]12C (stereo in doubt),> 99.5 µM
21,Cn1c(NC(=O)c2cccnc2-n2cccn2)nc2cc(F)ccc21,> 99.5 µM
22,CCOC(=O)CCCNC(=O)C(c1cccnc1)N(C(=O)c1cocn1)c1ccc(C(C)(C)C)cc1 (stereo unspecified),6.24 µM
23,CNC(=O)CN1Cc2ccc(Cl)cc2C(C(=O)Nc2cncc3cc(NS(C)(=O)=O)ccc23)C1 (stereo unspecified),0.0728 µM
24,COc1c(C(=O)N(c2ccc(C(C)(C)C)cc2)C(C(=O)NCCc2cccc(F)c2)c2cccnc2)[nH]c(=O)[nH]c1=O (stereo unspecified),> 99.5 µM

row,Compound,IC50
1,COC(=O)C1CC(NC(=O)C(c2cccnc2)N(C(=O)c2cocn2)c2ccc(C(C)(C)C)cc2)C1 (stereo unspecified),3.99 µM
2,O=C1CN(C(=O)Cc2cccc(Cl)c2)Cc2ccccc21,> 99.5 µM
3,Cc1nccn1-c1ccc(Nc2cc(Cl)cc(CC(=O)Nc3cncc4ccccc34)c2)cc1,2.48 µM
4,O=C1CCc2cc(C(=O)N3CCC(C4CCNC4)CC3)ccc2N1 (stereo unspecified),> 99.5 µM
5,Cc1ccncc1NC(=O)C(C)c1cccc(C#N)c1 (stereo unspecified),55.2 µM and 54.7 µM
6,O=C(CC1(C(=O)Nc2cncc3ccccc23)CCOc2ccc(Cl)cc21)N1CCCCC1c1nnc[nH]1 (stereo unspecified),0.437 µM
7,O=C(Nc1cncc2ccccc12)C1CN(S(=O)(=O)N2CCOCC2)Cc2ccc(Cl)cc21 (stereo unspecified),0.138 µM
8,CC1CCNC(=O)C1NC(=O)Cc1cccc(Cl)c1 (stereo unspecified),43.7 µM
9,NC(=O)c1ccc(Cl)c(Nc2cc(Cl)cc(CC(=O)Nc3cncc4ccccc34)c2)c1,1.79 µM
10,CC1(C(=O)Nc2cncc3cccc(Cl)c23)CNS(=O)(=O)c2ccc(Cl)cc21 (stereo unspecified),1.87 µM
11,CN(C(=O)c1ccco1)C(C(=O)NCCc1cccc(F)c1)c1cccnc1 (stereo unspecified),> 99.5 µM
12,O=C(O)CCc1cc2c(cc1S(=O)(=O)N1CCN(c3ccccc3)CC1)OCO2,> 99.5 µM
13,Cc1ncc(CN2CC(C(=O)Nc3cncc4cc(S(C)(=O)=O)ccc34)c3cc(Cl)ccc3C2=O)[nH]1 (stereo unspecified),0.226 µM
14,O=C(Cc1cc(Cl)cc(NCc2ccc(-c3ccccc3)cc2)c1)Nc1cncc2ccccc12,1.53 µM
15,O=C(CCc1cccc(Cl)c1)Nc1cncc2ccccc12,20.8 µM
16,Cc1ccncc1NC(=O)C(CO)c1cccc(Cl)c1 (stereo unspecified),> 99.5 µM
17,Cc1cccc(CN2CCN(c3nc4ccccc4nc3C)CC2)c1,> 99.5 µM
18,O=C1CCCN(S(=O)(=O)c2cccs2)CC1,> 99.5 µM
19,N#CC1(CS(=O)(=O)N2Cc3ccc(Cl)cc3[C@@H](C(=O)Nc3cncc4ccccc34)C2)CCOCC1 (stereo in doubt),15.2 µM
20,O=C(COc1cccc(Cl)c1)Nc1cncc2ccccc12,11.2 µM
21,O=C1CC(C(=O)Nc2cncc3ccccc23)c2cc(Br)ccc2N1 (stereo unspecified),1.12 µM
22,O=C(Cc1cc(Cl)cc(Nc2cc(F)c(F)cc2Br)c1)Nc1cncc2ccccc12,2.16 µM
23,CNC(=O)C(C)(C)N1CC(C(=O)Nc2cncc3ccccc23)c2cc(Cl)ccc2C1=O (stereo unspecified),1.02 µM
24,O=C(Cn1cnc2ccccc21)Nc1cccc(Cl)c1,87.2 µM

row,Compound,IC50
1,COc1cc2cncc(NC(=O)Cc3cccc(Cl)c3)c2cc1F,> 99.5 µM
2,O=C(Cc1cc(Cl)cc(NCc2cccc(Br)c2)c1)Nc1cncc2ccccc12,1.48 µM
3,Cc1cc2c(cc1S(=O)(=O)N1CCN(c3ccccc3)CC1)OCO2,> 99.5 µM
4,CC(C)(C)c1ccc(N(C(=O)c2cocn2)C(C(=O)NCc2cccnc2)c2cccnc2)cc1 (stereo unspecified),25.3 µM
5,CSCCNC(=O)C(c1cccnc1)N(C(=O)c1cocn1)c1ccc(C(C)(C)C)cc1 (stereo unspecified),2.45 µM
6,CCCCN1C(=O)C(=O)c2cc(Br)cc(C)c21,> 99.5 µM
7,O=C(NCCc1ccccc1)[C@@H]1CN(C(=O)CCl)CCN1S(=O)(=O)c1ccsc1 (stereo in doubt),1.28 µM
8,O=C(CCl)N1CCN(C(c2ccccc2)C2CCCCC2)CC1 (stereo unspecified),5.72 µM and 2.98 µM
9,N#CC1(CS(=O)(=O)N2Cc3ccc(Cl)cc3C3(CCN(c4cncc5ccccc45)C3=O)C2)CCC1 (stereo unspecified),0.263 µM
10,CN(C)c1ccc(C(Cc2ccsc2)C(=O)Nn2cnc3ccccc32)cc1 (stereo unspecified),> 99.5 µM
11,CC(C)(C)c1ccc(N(C(=O)c2cc(O)cc(=O)o2)C(C(=O)NCCc2cccc(F)c2)c2cccnc2)cc1 (stereo unspecified),> 99.5 µM
12,COC(=O)c1cc(/C=c2\s/c(=C(/C#N)C(=O)NC(C)C)n(-c3ccc(OC)c(F)c3)c2=O)oc1C,> 99.5 µM
13,CC(C)(C)c1ccc(N(C(=O)c2ccco2)C(C(=O)NCCN2CCOCC2)c2cccnc2)cc1 (stereo unspecified),2.19 µM
14,CC(=O)N(CC(=O)Nc1ccc(F)c(Cl)c1)c1cccc(Cl)c1,> 99.5 µM
15,C[C@H](Nc1cc(Cl)cc(CC(=O)Nc2cncc3ccccc23)c1)c1cccc2ccccc12 (stereo in doubt),3.53 µM
16,CN(CCO)S(=O)(=O)N1Cc2ccc(Cl)cc2C2(CCN(c3cncc4ccccc34)C2=O)C1 (stereo unspecified),0.699 µM
17,CC(C)(C)c1ccc(O)c(Nc2cc(Cl)cc(CC(=O)Nc3cncc4ccccc34)c2)c1,6.5 µM
18,O=C(Cc1cccc(Cl)c1)Nc1n[nH]c2ccncc12,> 99.5 µM
19,COCCNC(=O)C(c1cccnc1)N(C(=O)c1cocn1)c1ccc(C(C)(C)C)cc1 (stereo unspecified),8.46 µM
20,O=C(Cc1cc(Cl)cc(Cc2ccn[nH]2)c1)Nc1cncc2ccccc12,5.04 µM
21,CC(C)(C)c1ccc(N(C(=O)c2ccco2)C(C(=O)NCCc2cccc(F)c2)c2snc3ccccc23)cc1 (stereo unspecified),5.33 µM
22,C=CC(=O)NCc1ccc(C(=O)N[C@H](CO)c2ccc(Br)c(F)c2)cc1 (stereo in doubt),> 99.5 µM
23,CN1CCN(C2CCN(c3cc(Cl)cc(CC(=O)Nc4cncc5ccccc45)c3)CC2)CC1,4.56 µM
